Test results published in patent US20060100105A1, “Agents containing carboxylic acid and the use of the same in plant cultivation” (priority 2002, published 2006).

System: Winter oilseed rape (cv. Pronto)
Assay: Shoot elongation in winter oilseed rape
Type: in vivo
Settings: active ingredient alone
Protocol: The tank mixers employed in Example 1 are prepared by mixing an emulsion concentrate with a metconazole content of 90 g/l and an aqueous concentrate with mepiquat chloride content of 600 g/l using a magnetic stirrer (experiment T1).
Winter oilseed rape (cv. Pronto) was sown in autumn and approximately one month later treated as specified in Table 3. Shoot elongation and root development were assessed a few weeks later. The elongation results are compiled in Table 3.

Row | Structure (SMILES) | shortening effect (in words)
1 | CC1(C)CCC(Cc2ccc(Cl)cc2)C1(O)Cn1cncn1 (centres unmarked) [Metconazole, metconazole] | very pronounced
2 | C[N+]1(C)CCCCC1.[Cl-] [mepiquat-chloride, N,N-dimethylpiperidinium chloride] | only results in some degree of shortening at scoring date 2
